# Test results published in paper PMC5218480 (PLoS ONE, 2017).
# Test system: MV-4-11 cells
# Test: Gene expression microarray analysis (Affymetrix PrimeView) and GSEA
# Assay type: cell-based, human
# Parameters: RFU PODN (11730768_x_at) / Fold change /veh PODN (11730768_x_at) / RFU LINC00158 (11744669_a_at) / Fold change /veh LINC00158 (11744669_a_at) / RFU DUSP10 (11751237_a_at) / Fold change /veh DUSP10 (11751237_a_at) / RFU ID3 (11757404_x_at) / Fold change /veh ID3 (11757404_x_at) / RFU PLEKHG5 (11737974_s_at) / Fold change /veh PLEKHG5 (11737974_s_at) / RFU LRRC4B (11730491_at) / Fold change /veh LRRC4B (11730491_at) / RFU GIMAP4 (11747438_a_at) / Fold change /veh GIMAP4 (11747438_a_at) / RFU KRT8 (11758183_x_at) / Fold change /veh KRT8 (11758183_x_at) / RFU CNN1 (11734310_a_at) / Fold change /veh CNN1 (11734310_a_at) / RFU VPS37D (11726825_at) / Fold change /veh VPS37D (11726825_at) / RFU C10orf10 (11716522_x_at) / Fold change /veh C10orf10 (11716522_x_at) / RFU KIR2DL2 /// KIR2DL4 /// KIR2DL5A /// KIR2DL5B /// KIR2DS1 /// KIR2DS2 /// KIR2DS3 /// KIR2DS4 /// KIR3DL3 /// KIR3DL3 /// KIR3DS1 (11738374_at) / Fold change /veh KIR2DL2 /// KIR2DL4 /// KIR2DL5A /// KIR2DL5B /// KIR2DS1 /// KIR2DS2 /// KIR2DS3 /// KIR2DS4 /// KIR3DL3 /// KIR3DL3 /// KIR3DS1 (11738374_at) / RFU C1QL1 (11718748_at) / Fold change /veh C1QL1 (11718748_at) / RFU TMPRSS4 (11747572_a_at) / Fold change /veh TMPRSS4 (11747572_a_at) / RFU HAMP (11756126_x_at) / Fold change /veh HAMP (11756126_x_at) / RFU RNFT2 (11725882_a_at) / Fold change /veh RNFT2 (11725882_a_at) / RFU NR4A2 (11747474_a_at) / Fold change /veh NR4A2 (11747474_a_at) / RFU ABCC12 (11746883_a_at) / Fold change /veh ABCC12 (11746883_a_at) / RFU TMEM136 (11760407_x_at) / Fold change /veh TMEM136 (11760407_x_at) / RFU CLDN22 /// WWC2 (11732394_at) / Fold change /veh CLDN22 /// WWC2 (11732394_at) / RFU HLA-DPB1 (11760878_x_at) / Fold change /veh HLA-DPB1 (11760878_x_at) / RFU SPINT1 (11716480_a_at) / Fold change /veh SPINT1 (11716480_a_at) / RFU GAP43 (11754022_s_at) / Fold change /veh GAP43 (11754022_s_at) / RFU A4GNT (11735810_at) / Fold change /veh A4GNT (11735810_at) / RFU PRB3 (11715151_x_at) / Fold change /veh PRB3 (11715151_x_at) / RFU TUBB4B (11761932_at) / Fold change /veh TUBB4B (11761932_at) / RFU CAPN14 (11732068_a_at) / Fold change /veh CAPN14 (11732068_a_at) / RFU TMCC2 (11721928_a_at) / Fold change /veh TMCC2 (11721928_a_at) / RFU IRGQ (11745062_a_at) / Fold change /veh IRGQ (11745062_a_at) / RFU FAM174B (11720279_a_at) / Fold change /veh FAM174B (11720279_a_at) / RFU TMPRSS4 (11748680_a_at) / Fold change /veh TMPRSS4 (11748680_a_at) / RFU FAM212B (11763350_a_at) / Fold change /veh FAM212B (11763350_a_at) / RFU PLEKHG5 (11743358_a_at) / Fold change /veh PLEKHG5 (11743358_a_at) / RFU ZSCAN30 (11745921_a_at) / Fold change /veh ZSCAN30 (11745921_a_at) / RFU CMKLR1 (11741424_a_at) / Fold change /veh CMKLR1 (11741424_a_at) / RFU LOC101060620 /// MAPK8IP1 (11723275_at) / Fold change /veh LOC101060620 /// MAPK8IP1 (11723275_at) / RFU SPTSSB (11747773_x_at) / Fold change /veh SPTSSB (11747773_x_at) / RFU PRSS12 (11739890_at) / Fold change /veh PRSS12 (11739890_at) / RFU BIN1 (11741810_x_at) / Fold change /veh BIN1 (11741810_x_at) / RFU WNT11 (11732464_a_at) / Fold change /veh WNT11 (11732464_a_at) / RFU C10orf10 (11716521_a_at) / Fold change /veh C10orf10 (11716521_a_at) / RFU C5orf56 (11738089_at) / Fold change /veh C5orf56 (11738089_at) / RFU CYB561 (11721691_x_at) / Fold change /veh CYB561 (11721691_x_at) / RFU ANKRD19P (11752326_a_at) / Fold change /veh ANKRD19P (11752326_a_at) / RFU OR2T12 /// OR2T33 /// OR2T8 (11738714_s_at) / Fold change /veh OR2T12 /// OR2T33 /// OR2T8 (11738714_s_at) / RFU VCAN (11748164_a_at) / Fold change /veh VCAN (11748164_a_at) / RFU JSRP1 (11732532_at) / Fold change /veh JSRP1 (11732532_at) / RFU KRTAP10-11 (11738290_x_at) / Fold change /veh KRTAP10-11 (11738290_x_at) / RFU MYO3A (11730013_a_at) / Fold change /veh MYO3A (11730013_a_at) / RFU EBF3 (11725865_a_at) / Fold change /veh EBF3 (11725865_a_at) / RFU CAMK2N1 (11719241_x_at) / Fold change /veh CAMK2N1 (11719241_x_at) / RFU C5orf56 (11738088_a_at) / Fold change /veh C5orf56 (11738088_a_at) / RFU OLFML3 (11715873_a_at) / Fold change /veh OLFML3 (11715873_a_at) / RFU LOC100653217 /// NTM (11731650_a_at) / Fold change /veh LOC100653217 /// NTM (11731650_a_at) / RFU MAPK11 (11762145_a_at) / Fold change /veh MAPK11 (11762145_a_at) / RFU FIZ1 (11724087_x_at) / Fold change /veh FIZ1 (11724087_x_at) / RFU OASL (11726364_x_at) / Fold change /veh OASL (11726364_x_at) / RFU SOX15 (11748057_x_at) / Fold change /veh SOX15 (11748057_x_at) / RFU CD79A (11719716_a_at) / Fold change /veh CD79A (11719716_a_at) / RFU HIST1H1D (11736915_at) / Fold change /veh HIST1H1D (11736915_at) / RFU CASKIN2 (11723855_a_at) / Fold change /veh CASKIN2 (11723855_a_at) / RFU LOC730098 (11760151_x_at) / Fold change /veh LOC730098 (11760151_x_at) / RFU OR4N2 (11742367_at) / Fold change /veh OR4N2 (11742367_at) / RFU PRRT2 (11749266_a_at) / Fold change /veh PRRT2 (11749266_a_at) / RFU SNX32 (11753110_a_at) / Fold change /veh SNX32 (11753110_a_at) / RFU CDHR5 (11726645_a_at) / Fold change /veh CDHR5 (11726645_a_at) / RFU RCAN1 (11760418_a_at) / Fold change /veh RCAN1 (11760418_a_at) / RFU FAM167A (11723789_a_at) / Fold change /veh FAM167A (11723789_a_at) / RFU FAM26E (11764081_at) / Fold change /veh FAM26E (11764081_at) / RFU ISYNA1 (11749810_s_at) / Fold change /veh ISYNA1 (11749810_s_at) / RFU ACY1 (11761880_at) / Fold change /veh ACY1 (11761880_at) / RFU 11764098_at / Fold change /veh 11764098_at / RFU SAMD14 (11745864_x_at) / Fold change /veh SAMD14 (11745864_x_at) / RFU NPB (11741838_a_at) / Fold change /veh NPB (11741838_a_at) / RFU TMPRSS6 (11731388_a_at) / Fold change /veh TMPRSS6 (11731388_a_at) / RFU KRTAP10-2 (11738614_at) / Fold change /veh KRTAP10-2 (11738614_at) / RFU ARHGAP8 /// PRR5-ARHGAP8 (11727945_x_at) / Fold change /veh ARHGAP8 /// PRR5-ARHGAP8 (11727945_x_at) / RFU KRTAP5-7 /// NADSYN1 (11734609_at) / Fold change /veh KRTAP5-7 /// NADSYN1 (11734609_at) / RFU RASL12 (11751679_a_at) / Fold change /veh RASL12 (11751679_a_at) / RFU CDKN2B (11736163_a_at) / Fold change /veh CDKN2B (11736163_a_at) / RFU PRF1 (11729649_at) / Fold change /veh PRF1 (11729649_at) / RFU, ZNF638 /// ZNF638-IT1 / Fold change vs veh, ZNF638 /// ZNF638-IT1 / RFU, PANK3 / Fold change vs veh, PANK3 / RFU, SH3YL1 / Fold change vs veh, SH3YL1 / RFU, ZEB2 / Fold change vs veh, ZEB2 / RFU, NRIP1 / Fold change vs veh, NRIP1 / RFU, PTTG1IP / Fold change vs veh, PTTG1IP / RFU, CAPN2 / Fold change vs veh, CAPN2 / RFU, MED14 / Fold change vs veh, MED14 / RFU, SNORA58 / Fold change vs veh, SNORA58 / RFU, C1orf63 / Fold change vs veh, C1orf63 / RFU, LRRFIP1 / Fold change vs veh, LRRFIP1 / RFU, NDUFAF7 / Fold change vs veh, NDUFAF7 / RFU, SLC12A2 / Fold change vs veh, SLC12A2 / RFU, IBTK / Fold change vs veh, IBTK / RFU, ESF1 / Fold change vs veh, ESF1 / Fold change vs veh, TMEM50B / RFU, TAOK1 / Fold change vs veh, TAOK1 / RFU, ACBD3 / Fold change vs veh, ACBD3 / RFU, TMA16 / Fold change vs veh, TMA16 / RFU, RWDD3 / Fold change vs veh, RWDD3 / RFU, BCAT1 / Fold change vs veh, BCAT1 / RFU, EDEM3 / Fold change vs veh, EDEM3 / RFU, TMEM33 / Fold change vs veh, TMEM33 / RFU, WDR75 / Fold change vs veh, WDR75 / RFU, AHCTF1 / Fold change vs veh, AHCTF1 / RFU, TFRC / Fold change vs veh, TFRC / RFU, ZDHHC17 / Fold change vs veh, ZDHHC17 / RFU, NOM1 / Fold change vs veh, NOM1 / RFU, ARL8B / Fold change vs veh, ARL8B / RFU, ZBTB11 / Fold change vs veh, ZBTB11 / RFU, TAMM41 / Fold change vs veh, TAMM41 / RFU, KIAA1704 /// LOC100996395 / Fold change vs veh, KIAA1704 /// LOC100996395 / RFU, ING1 / Fold change vs veh, ING1 / RFU, TRMT61B / Fold change vs veh, TRMT61B / RFU, FUBP3 / Fold change vs veh, FUBP3 / RFU, TP53 / Fold change vs veh, TP53 / RFU, TNKS2 / Fold change vs veh, TNKS2 / RFU, ZFP14 / Fold change vs veh, ZFP14 / RFU, ACTR2 / Fold change vs veh, ACTR2 / RFU, PPP3R1 / Fold change vs veh, PPP3R1 / RFU, PIK3R1 / Fold change vs veh, PIK3R1 / RFU, HNRNPA1 / Fold change vs veh, HNRNPA1 / RFU, RNF170 / Fold change vs veh, RNF170 / RFU, ZNF28 / Fold change vs veh, ZNF28 / RFU, RNGTT / Fold change vs veh, RNGTT / RFU, OGT / Fold change vs veh, OGT / RFU, BRD1 / Fold change vs veh, BRD1 / RFU, MARS / Fold change vs veh, MARS / RFU, ZNF655 / Fold change vs veh, ZNF655 / RFU, FAHD1 / Fold change vs veh, FAHD1 / RFU, BDP1 / Fold change vs veh, BDP1 / RFU, LRRCC1 / Fold change vs veh, LRRCC1 / RFU, ARID1A / Fold change vs veh, ARID1A / RFU, ZNF146 / Fold change vs veh, ZNF146 / RFU, ZNF330 / Fold change vs veh, ZNF330 / RFU, GPN3 / Fold change vs veh, GPN3 / RFU, C9orf123 / Fold change vs veh, C9orf123 / RFU, N4BP2L2 / Fold change vs veh, N4BP2L2 / RFU, ARFIP1 / Fold change vs veh, ARFIP1 / RFU, FAM179B / Fold change vs veh, FAM179B / RFU, BCL10 / Fold change vs veh, BCL10 / RFU, UHRF1BP1L / Fold change vs veh, UHRF1BP1L / RFU, BET1 / Fold change vs veh, BET1 / RFU, CNOT2 / Fold change vs veh, CNOT2 / RFU, ZNF268 / Fold change vs veh, ZNF268 / Fold change vs veh, ZNF507 / RFU, DGCR2 / Fold change vs veh, DGCR2 / RFU, WDSUB1 / Fold change vs veh, WDSUB1 / Fold change vs veh, HSP90B1 /// MIR3652 / RFU, ADSS / Fold change vs veh, ADSS / RFU, GK / Fold change vs veh, GK / RFU, ZNF148 / Fold change vs veh, ZNF148 / RFU, TAF9 / Fold change vs veh, TAF9 / RFU, SLC1A5 / Fold change vs veh, SLC1A5 / RFU, SLMO2 / Fold change vs veh, SLMO2 / RFU, ABCC4 / Fold change vs veh, ABCC4 / RFU, LOC101060439 /// RAP1B / Fold change vs veh, LOC101060439 /// RAP1B / RFU, RFX7 / Fold change vs veh, RFX7 / RFU, GTPBP10 / Fold change vs veh, GTPBP10 / RFU, CNEP1R1 / Fold change vs veh, CNEP1R1 / RFU, BIVM-ERCC5 /// ERCC5 / Fold change vs veh, BIVM-ERCC5 /// ERCC5 / RFU, ILF3 / Fold change vs veh, ILF3 / RFU 11762660_at / Fold change /veh 11762660_at / RFU VCAN (11757783_s_at) / Fold change /veh VCAN (11757783_s_at) / RFU DDX43 (11728927_at) / Fold change /veh DDX43 (11728927_at) / RFU KRT8 (11758188_x_at) / Fold change /veh KRT8 (11758188_x_at) / RFU NKD1 (11759106_at) / Fold change /veh NKD1 (11759106_at) / RFU SRD5A1 (11742802_a_at) / Fold change /veh SRD5A1 (11742802_a_at) / RFU TPSAB1 /// TPSB2 (11721975_s_at) / Fold change /veh TPSAB1 /// TPSB2 (11721975_s_at) / RFU GSTM3 (11746129_a_at) / Fold change /veh GSTM3 (11746129_a_at) / RFU IL23R (11737362_x_at) / Fold change /veh IL23R (11737362_x_at) / RFU TMEM51 (11727254_a_at) / Fold change /veh TMEM51 (11727254_a_at) / RFU PIWIL2 (11732686_x_at) / Fold change /veh PIWIL2 (11732686_x_at) / RFU ORM1 (11744905_x_at) / Fold change /veh ORM1 (11744905_x_at) / RFU CCDC152 (11743942_at) / Fold change /veh CCDC152 (11743942_at) / RFU ECM1 (11717891_a_at) / Fold change /veh ECM1 (11717891_a_at) / RFU IL23R (11748794_a_at) / Fold change /veh IL23R (11748794_a_at) / RFU TNFAIP8L3 (11732012_x_at) / Fold change /veh TNFAIP8L3 (11732012_x_at) / RFU MBOAT4 (11741988_at) / Fold change /veh MBOAT4 (11741988_at) / RFU 11764193_at / Fold change /veh 11764193_at / RFU TMEM53 (11763286_at) / Fold change /veh TMEM53 (11763286_at) / RFU MAGEB2 (11727129_at) / Fold change /veh MAGEB2 (11727129_at) / RFU TMEM200A (11744735_a_at) / Fold change /veh TMEM200A (11744735_a_at) / RFU CCDC152 (11751479_a_at) / Fold change /veh CCDC152 (11751479_a_at) / RFU FAM211A (11726209_a_at) / Fold change /veh FAM211A (11726209_a_at) / RFU RGS16 (11746705_a_at) / Fold change /veh RGS16 (11746705_a_at) / RFU VCAN (11755009_s_at) / Fold change /veh VCAN (11755009_s_at) / RFU RHOB (11743442_s_at) / Fold change /veh RHOB (11743442_s_at) / RFU RGS16 (11720943_a_at) / Fold change /veh RGS16 (11720943_a_at) / RFU RGS16 (11720944_at) / Fold change /veh RGS16 (11720944_at) / RFU, VPS4B / Fold change vs veh, VPS4B / RFU, CREB1 / Fold change vs veh, CREB1 / RFU, DNAJC13 / Fold change vs veh, DNAJC13 / RFU, GNAQ / Fold change vs veh, GNAQ / RFU, CDK5R1 / Fold change vs veh, CDK5R1 / RFU, ZRANB3 / Fold change vs veh, ZRANB3 / RFU, CUL4A / Fold change vs veh, CUL4A / RFU, CCNY / Fold change vs veh, CCNY / RFU, UFL1 / Fold change vs veh, UFL1 / RFU, COG3 / Fold change vs veh, COG3 / RFU, DIAPH2 / Fold change vs veh, DIAPH2 / RFU, SKA2 / Fold change vs veh, SKA2 / RFU, AFF3 / Fold change vs veh, AFF3 / RFU, LMF1 / Fold change vs veh, LMF1 / RFU, IPO11 / Fold change vs veh, IPO11 / RFU, DFFB / Fold change vs veh, DFFB / RFU, FOXP1 / Fold change vs veh, FOXP1 / RFU, CARD8 / Fold change vs veh, CARD8 / RFU, STRN3 / Fold change vs veh, STRN3 / RFU, ADK / Fold change vs veh, ADK / RFU, RASSF2 / Fold change vs veh, RASSF2 / RFU, WIPF1 / Fold change vs veh, WIPF1 / RFU, LARP1B / Fold change vs veh, LARP1B / RFU, RASA1 / Fold change vs veh, RASA1 / RFU, RB1 / Fold change vs veh, RB1 / RFU, PPFIA1 / Fold change vs veh, PPFIA1 / RFU, MAT2A / Fold change vs veh, MAT2A / RFU, CCT5 / Fold change vs veh, CCT5 / RFU, WDR92 / Fold change vs veh, WDR92 / RFU, CUX1 / Fold change vs veh, CUX1 / RFU, TTC7A / Fold change vs veh, TTC7A / RFU, TMEM135 / Fold change vs veh, TMEM135 / RFU, DEPTOR / Fold change vs veh, DEPTOR / RFU, CPM / Fold change vs veh, CPM / RFU, DNAJB6 / Fold change vs veh, DNAJB6 / RFU, CACNA2D3 / Fold change vs veh, CACNA2D3 / RFU, DTX4 / Fold change vs veh, DTX4 / RFU, TFCP2 / Fold change vs veh, TFCP2 / RFU, GMCL1 /// GMCL1P1 / Fold change vs veh, GMCL1 /// GMCL1P1 / RFU, AEBP2 / Fold change vs veh, AEBP2 / RFU, SNHG1 /// SNORD22 /// SNORD25 /// SNORD26 /// SNORD27 /// SNORD28 /// SNORD29 /// SNORD31 / Fold change vs veh, SNHG1 /// SNORD22 /// SNORD25 /// SNORD26 /// SNORD27 /// SNORD28 /// SNORD29 /// SNORD31 / Fold change (Aza/veh), C12orf56 (ProbeSet 11735607_a_at) / Fold change (ACY-1035/veh), C12orf56 (ProbeSet 11735607_a_at) / Fold change (Aza/veh), FGFR1OP (ProbeSet 11751329_s_at) / Fold change (ACY-1035/veh), FGFR1OP (ProbeSet 11751329_s_at) / Fold change (Aza/veh), VPS36 (ProbeSet 11739960_a_at) / Fold change (ACY-1035/veh), VPS36 (ProbeSet 11739960_a_at) / RFU SYPL1 (11715823_x_at) / Fold change /veh SYPL1 (11715823_x_at) / RFU IGFBP7 (11715501_s_at) / Fold change /veh IGFBP7 (11715501_s_at) / RFU REEP3 (11722064_at) / Fold change /veh REEP3 (11722064_at) / RFU IGLL1 (11728026_x_at) / Fold change /veh IGLL1 (11728026_x_at): dose or concentration left out as unconfirmed
# Details: MV-4-11 cells, 48 hours
smiles,measurement,value
Nc1ccc(-c2cccs2)cc1NC(=O)c1ccc2c(c1)cc(C1CC1)n2CCN1CCOCC1 [ACY-1035],RFU TMEM51 (11727254_a_at),14.11 RFU
